Consider one compound from US20140341916A1, “THERAPEUTIC COMBINATIONS AND METHODS OF TREATING MELANOMA” (Genentech, Inc., priority 2011, published 2014).

Test [1] concerns ETBR transcript. Kind of test: ETBR transcript level in melanoma cell lines, Taqman, normalized to RPL19. Conditions: 24 h. The class given is cell-based, human. As for the experimental part:
Melanoma cell lines UACC-257X2.2, A2058, COLO 829, IPC-298 (ATCC) were treated with a BRAF inhibitor drug (“BRAFi”), specifically RG7204 at varying concentrations by adding the appropriate drug volume to cells in culture for 24 h on four-well dishes.
(§1) To determine the effect of BRAFi on ETBR and control ribosomal protein L19 (RPL19) transcript levels, the following experiments were performed. Cells treated with RG7204 for 24 h were harvested from plates by scraping and processed for total RNA using Qiashredder and RNeasy mini kits (79654, 74104 from Qiagen, Valencia, Calif.). Taqman assays were set up using reagents from Applied Biosystems (ABI, Foster City, Calif.) and assayed using 7500 Real Time PCR machine and software from ABI. Primer-probe sets were designed with primers flanking a fluorogenic probe dual labeled with Reporter dye FAM and quencher dye TAMRA.
Melanoma cell lines A2058, COLO 829, SK23-MEL and IPC-298 (ATCC) were treated with a MEK inhibitor drug (“MEKi-973” or “MEKi-623”), at varying concentrations (0 μM, 0.01 μM, 0.1 μM or 1 μM) by adding the appropriate drug volume to cells in culture for 24 h on four-well dishes.
as §1, with “MEKi” for “BRAFi”, “ETBR” for “ETBR and control ribosomal protein L19 (RPL19)”, “performed as described above in Example 3.” for “performed.”, “either MEKi-973” for “RG7204”
(In general: Quantitative PCR measures a nucleic acid by following its amplification.)

In test [2] the test system is COLO 829 melanoma xenograft. The test is described as follows: In vivo efficacy, subcutaneous melanoma xenograft, tumor volume / % TGI. Details: species or system mice.
Description: The average tumor volumes were determined from 10 animals per group. Tumor volumes were measured twice per week until study end. Tumor volumes were measured in two dimensions (length and width) using UltraCal IV calipers (Model 54 10 111, Fred V. Fowler Company; Newton, Mass.). The following formula was used with Excel, version 12.2.8 (Microsoft; Redmond, Wash.) to calculate tumor volume: Tumor Volume (mm3)=(length×width)×0.5
To analyze the repeated measurement of tumor volumes from the same animals over time, a mixed-modeling Linear Mixed Effects (LME) approach was used (Pinheiro et al. 2009). This approach can address both repeated measurements and a modest drop-out rate due to non-treatment-related termination of animals prior to study end. Cubic regression splines were used to fit a non-linear profile to the time courses of log 2 tumor volume at each dose level. These non-linear profiles were then related to dose within the mixed model. Tumor growth inhibition (TGI) as a percentage of vehicle was calculated as percent area under the fitted curve (AUC) per day in relation to the vehicle, using the following formula:
To get uncertainty intervals (UIs) for % TGI, the fitted curve and the fitted covariance matrix were used to generate a random sample as an approximation to the distribution of % TGI. The random sample is composed of 1000 simulated realizations of the fitted-mixed model, where the % TGI has been recalculated for each realization. Here, in the reported UI is the value for which 95% of the time, the recalculated values of % TGI will fall in this region given the fitted model. The 2.5 and 97.5 percentiles of the simulated distribution were used as the upper and lower UIs.
The COLO 829 xenograft model was chosen as representative of medium levels of ETBR expression, further increasing the stringency of the combination studies. Tumors were grown to an average size of approximately 200 mm^3, whereupon animals were randomized into groups of 9 each. An appropriate vehicle control (Klucel LF) or G00044364.1-12 (RG7204) at doses of 10 mpk or 30 mpk were administered orally twice a day for 21 days starting on day 0.
Test [3] relates to ETBR transcript. Kind of test: PD study, ETBR transcript in COLO 829 tumors, Taqman, normalized to GAPDH. The note with it: RG7204 10 mpk or 30 mpk twice a day for 3 days. In kind it is in vivo, mice. Here is the method: A2058 or COLO 829 tumors were grown to an average size of approximately 200 mm^3, whereupon animals were randomized into groups of 5-6 each. For the BRAFi PD study, an appropriate vehicle control (Klucel LF) or RG7204 at doses of 10 mpk or 30 mpk were administered twice a day for 3 days (FIG. 27A). For the MEKi PD study, an appropriate vehicle control or MEKi-973 at doses of 5 mpk and 10 mpk were administered orally once a day for 3 days (FIG. 27B). Flash frozen tumors harvested at end of study were homogenized and processed for RNA and/or protein. Taqman assays were set up using reagents from Applied Biosystems (ABI, Foster City, Calif.) and assayed using 7500 Real Time PCR machine and software from ABI. Primer-probe sets were designed with primers flanking a fluorogenic probe dual labeled with Reporter dye FAM and quencher dye TAMRA. ETBR transcript levels in the tumors were normalized against transcript levels of reference genes such as Hprt1 (hypoxanthine phosphoribosyltransferase 1) or GAPDH (glyceraldehyde 3 phosphate dehydrogenase) using primer and probe sets that were specific to the human homologs of these genes.

As for `CCCS(=O)(=O)Nc1ccc(F)c(C(=O)c2c[nH]c3ncc(-c4ccc(Cl)cc4)cc23)c1F` [RG7204, propane-1-sulfonic acid {3-[5-(4-chlorophenyl)-1H-pyrrolo[2,3-b]pyridine-3-carbonyl]-2,4-difluoro-phenyl}-amide], the “ETBR transcript vs untreated control cells” value with ETBR transcript [1] (A2058 cells), with ETBR transcript [1] (COLO 829 cells) and with ETBR transcript [1] (UACC-257X2.2 cells) was “appears to increase the ETBR transcripts” throughout. Also, the results for the “% TGI Single Agent BRAFi vs. control” value in test [2] (BRAFi Qdx21 10 mg/kg) and in test [2] (BRAFi Qdx21 30 mg/kg) were 27% and 83%, respectively. For the same compound, in the test with ETBR transcript [3], the “ETBR mRNA in tumors vs control vehicle” value is listed as “induces ETBR mRNA in vivo”.
